Measurements taken from US9822078B2, “Quinoline compounds” (Oxford University Innovation Limited, priority 2014, dated 2017).

Key:
[1] = target: T1, Islet amyloid precursor polypeptide, IAPP (Homo sapiens, UniProt P10997); test: In vitro assembly assay (thioflavin T fluorescence, with or without air-water interface), IAPP; type: biochemical; conditions: ratio of IC50 with air-water interface (+AWI) to IC50 without (−AWI), IAPP at 4 μM; for Ratio IAPP IC50 (μm) +AWI/−AWI elongation: elongation rate
T1 construct: Purified synthetic peptides corresponding to IAPP (Bachem, Weil am Rhein, Germany); purchased Bachem, Weil am Rhein, Germany; host or cells: synthetic peptide
T1 sequence (P10997 34-70 limits assumed): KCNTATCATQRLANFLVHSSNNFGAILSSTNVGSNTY
Procedure: (§1) The assay is based upon the altered fluorescent properties of the dye thioflavin T when it is intercalated into stacked beta-strand structures, which includes amyloid fibrils. The assay is carried out in multi-well plates in which the air-water interface (AWI) can be independently occluded at any time in the assay by the insertion in any well of a hydrophilic poly-methyl-methacrylate cylinder (Perspex). The cylinder consists of a rod of 6.6 mm in diameter and 6 mm in height with a hemispherical tip. This provides a close fit for the circular cross-section of the well, minimising residual air-water interface, and the hemispherical contour on the inserted end serves to ensure that no air bubbles are trapped on insertion.
(§2) The assay has a final volume of 100 μl and contains a buffered isotonic solution (Phosphate Buffered Saline pH 7.4), 32 μM Thioflavin T (ThT), an amyloidogenic precursor peptide (Islet amyloid precursor polypeptide, IAPP at 4 μM, or Abeta1-40 at 12 μM, final concentration) and added compounds at indicated concentrations (dissolved in dimethyl sulphoxide, DMSO) or DMSO alone. Purified synthetic peptides corresponding to IAPP (Bachem, Weil am Rhein, Germany) and Aβ1-40 (EZBiolab, Carmel, Ind., USA) were dissolved in DMSO, sonicated, and centrifuged for 1 hour at 15,000 g and 4° C. before use (to remove any pre-aggregated species).
(§3) The ThT fluorescence signal was measured at 1 minute intervals (excitation 450 nm, emission 480 nm) in a 96-well plate (black wall, clear bottom; Greiner Bio-One, Stonehouse, Gloucestershire, UK) without shaking at 37° C. on a Polarstar plate reader (BMG Labtech, Aylesbury, Buckinghamshire, UK).
(§4) Any compound or physical device (e.g., Perspex cylinder) used was introduced at the same time in test (containing IAPP) and control wells (buffer and ThT without IAPP). Control values (with or without compounds or physical device) were subtracted from test values. At least 3 independent assays, with every assay done in duplicate wells, were performed and analyzed with the 2-sample t test.
(§5) A more detailed description of the IAPP and Aβ thioflavin/cylinder assay is given in Jean et al (2012) Biophysical Journal 102 1154-11.
(§6) The kinetics parameters were calculated from the ThT data as follows; the elongation rate was calculated from the slope at the inflection point of the sigmoidal curve; the plateau height was calculated by averaging the highest curve values (minimum of five values) attained at the end of the experiment; and the lag phase was calculated from the intercept on the time axis of the line formed tangent to the inflection point. At least three independent assays were performed, with every assay performed in duplicate wells. Statistical analysis was performed with the two-sample t-test. Details of the method of calculation of lag phase, elongation rate and plateau height are described in Trigg et al (2013) Biochemical Journal 456 67-80.

Abeta1-40 = target: T2, Abeta1-40 (Homo sapiens, UniProt P05067); test: In vitro assembly assay (thioflavin T fluorescence), screen against Amyloid-beta (Aβ) peptides; type: biochemical; conditions: Abeta1-40 at 12 μM
T2 construct: Abeta1-40 at 12 μM, final concentration; purchased EZBiolab, Carmel, Ind., USA; host or cells: synthetic peptide
T2 sequence (P05067 672-711 limits assumed): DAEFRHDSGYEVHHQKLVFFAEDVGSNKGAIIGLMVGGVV
Procedure: as §1, §2, §3, §4, §5, §6

C. elegans = test: in vivo C. elegans model

| Structure (SMILES) | Ratio IAPP IC50 (μm) +AWI/−AWI elongation [1] | Ratio IAPP IC50 (μm) +AWI/−AWI Lag phase [1] | Active against Aβ (Abeta1-40) | activity in an in vivo C. elegans model (C. elegans) |
| --- | --- | --- | --- | --- |
| Cc1cc(C)c2ccc(/C=C/c3cccnc3Cl)nc2c1O [Compound 311] | 1 | 4 | – | – |
| Cc1cc(C)c2ccc(/C=C/c3ccccc3C#N)nc2c1O [Compound 229] | 32 | 32 | ✓ (rate) | – |
| COc1ccc(/C=C/c2ccc3c(C)cc(C)c(O)c3n2)cn1 [Compound 312] | 1 | 2 | – | – |
| Cc1cc(C)c2ccc(/C=C/c3ccc(N4CCNCC4)nc3)nc2c1O [Compound 324] | 4 | 21 | – | – |
| Cc1cc(C)c2ccc(/C=C/c3cccc(O)c3)nc2c1O [Compound 227] | 31 | 32 | ✓ (rate) | – |
| Cc1cc(C)c2ccc(/C=C/c3ccc(N4CCOCC4)nc3)nc2c1O [Compound 323] | 2.5 | 11 | – | – |
| Cc1cc(C)c2ccc(/C=C/c3ccccc3N)nc2c1O [Compound 131] | 4 | 8 | – | – |
| Cc1cc(C)c2ccc(/C=C/c3cccnc3C)nc2c1O [Compound 326] | 1 | 1 | – | – |
| Cc1cc(C)c2ccc(/C=C/c3cccc([N+](=O)[O-])c3)nc2c1O [Compound 234] | 21 | 21 | – | – |
| Cc1cc(C)c2ccc(/C=C/c3cccnc3)nc2c1O [Compound 249] | 12 | 32 | ✓ | showed activity |
| Cc1cc(C)c2ccc(/C=C/c3cccc(C#N)c3)nc2c1O [Compound 251] | 21 | 21 | ✓ | showed activity |
| Cc1cc(C)c2ccc(/C=C/c3ccc4c(c3)OCO4)nc2c1O [Compound 241] | 11 | 3 | No | showed activity |
| Cc1cc(C)c2ccc(/C=C/c3ccccc3[N+](=O)[O-])nc2c1O [Compound 222] | 3 | 11 | – | – |
| Cc1cc(C)c2ccc(/C=C/c3ccccc3)nc2c1O [Compound 225] | 4 | 3 | – | – |
| Cc1cc(C)c2ccc(/C=C/c3cc(C(=O)O)ccc3O)nc2c1O [Compound 236] | 11 | 8 | ✓ | showed activity |
| Cc1cc(C)c2ccc(/C=C/c3ccc(OC(F)(F)F)cc3)nc2c1O [Compound 239] | 32 | 11 | – | – |
| Cc1cc(C)c2ccc(/C=C/c3ccc(Br)cc3)nc2c1O [Compound 252] | 3 | 1 | – | – |
| Cc1cc(C)c2ccc(/C=C/c3ccccc3O)nc2c1O [Compound 214] | 3 | 32 | ✓ (rate) | showed activity |
| Cc1ccc(/C=C/c2ccc3c(C)cc(C)c(O)c3n2)cn1 [Compound 322] | 1 | 4 | – | – |
| Cc1cc(C)c2ccc(/C=C/c3cccnc3N)nc2c1O [Compound 321] | >1 | 3 | – | – |
| Cc1cc(C)c2ccc(/C=C/c3ccc(O)c(O)c3)nc2c1O [Compound 221] | 16 | 32 | – | – |
| Cc1cc(C)c2ccc(/C=C/C3CCCCC3)nc2c1O [Compound 245] | 32 | 32 | ✓ | – |
| Cc1cc(C)c2ccc(/C=C/c3cccnc3N3CCNCC3)nc2c1O [Compound 325] | 5 | 1 | – | – |
| COc1cc(/C=C/c2ccc3c(C)cc(C)c(O)c3n2)ccc1O [Compound 238] | 4 | 32 | – | – |
| Cc1cc(C)c2ccc(/C=C/c3ccc(Br)o3)nc2c1O [Compound 226] | 3 | 1 | – | – |
